Assays:
[1] = Perhydrolysis rate of dissolved activator (titration of total active oxygen and peracid); settings: for time required for 90% conversion of activator: predissolved activator; for Perhydrolysis rate / release of peracid: in words, with hydrogen peroxide or percompounds
Method: The experimental determination of the perhydrolysis rate of the activators TAEA (triacetylethanolamine), TAED (tetraacetylethylenediamine) and isonobs (sodium isononanoyloxybenzenesulfonate) was carried out under wash conditions in a 2 1 beaker in a thermostat. An electrical stirrer ensured uniform stirring of a 2 percent strength solution of an IEC standard detergent composition, to which perborate had been added together with 20 ml of a cherry juice solution as a bleachable stain.
The activators were predissolved in a little water and added to the abovementioned temperature controlled washing liquor. At each set time interval (1-5 minutes) a 50 ml sample was removed and titrated for total active oxygen and peracid.
pH dependence of perhydrolysis of dissolved bleach activators at 22° C.; time required [min] for 90% conversion of activator: […]

[2] = Determination of the water solubility of activators; assay type: physicochemical; settings: for Water solubility / miscibility with water (words): in words, temperature not stated
Method: The water solubility of N,N,O-triacetylethanolamine (TAEA) and ethylidene benzoate acetate (EBA) was determined by known methods.

[3] = Wash tests in Launder-O-meter at 60° C., tea stain
[4] = Washing tests in Launder-O-meter at room temperature, tea stain; settings: 25° C.
[5] = background discussion; cited from earlier work

For `CC(CC(=O)Oc1ccc(S(=O)(=O)[O-])cc1)CC(C)(C)C.[Na+]` (stereo not shown) [Isonobs, sodium isononanoyloxybenzenesulfonate], the “time required for 90% conversion of activator” value ([1]; pH 9, 22° C.) was greater than 30 min, the “time required for 90% conversion of activator” value ([1]; pH 10, 22° C.) was 11 min and the “time required for 90% conversion of activator” value ([1]; pH 11, 22° C.) was 1.5 min.

For `CC(=O)N(CCN(C(C)=O)C(C)=O)C(C)=O` [TAED, tetraacetylethylenediamine], the “time required for 90% conversion of activator” value ([1]; pH 9, 22° C.) was 15 min, the “time required for 90% conversion of activator” value ([1]; pH 10, 22° C.) was 7 min and the “time required for 90% conversion of activator” value ([1]; pH 11, 22° C.) was 1 min.

With `CC(=O)OCCN(C(C)=O)C(C)=O` [TAEA, N,N,O-triacetylethanolamine] the “Water solubility (infinite, unit not given)” value ([2]; 23° C.) was “.infin”, the “Water solubility (infinite, unit not given)” value ([2]; 37° C.) was “.infin” and the “Water solubility / miscibility with water (words)” value [2] was “complete miscibility of the compound with water”. For the same molecule, the “Water solubility / miscibility with water (words)” value ([2]; listed as triacetylethanolamine) was “has the best water solubility and is miscible with water in any proportion”, the “Perhydrolysis rate / release of peracid” value [1] was “releases one mole of peracetic acid very rapidly, in fact as rapidly as predissolved TAED” and the “Perhydrolysis rate / release of peracid” value ([1]; listed as Triacetylethanolamine (TAEA)) was “readily reacts in aqueous solution with hydrogen peroxide or inorganic persalts to form peracetic acid”. The “time required for 90% conversion of activator” value ([1]; pH 9, 22° C.) was 12 min, the “time required for 90% conversion of activator” value ([1]; pH 10, 22° C.) was 7 min and the “time required for 90% conversion of activator” value ([1]; pH 11, 22° C.) was 1 min. The “bleaching performance” value ([3]; tea and red wine stains) was “superior in bleaching performance to previously known EDA and to non-liquid DALEA” and the “bleaching effect” value ([4]; tea and red wine stains) was “superior bleaching effect”.

For `CC(=O)OC(C)OC(=O)c1ccccc1` (stereo not shown) [EBA, ethylidene benzoate acetate], the Water solubility ([2]; 23° C.) is given as 700 µg/mL, the Water solubility ([2]; 37° C.) is given as 800 µg/mL and the “Solubility in water (words, prior-art activator)” value [5] is given as “limited solubility in water”.

With sodium perborate [PB] the Reflectance values ([3]; tea stain, 30 minutes, 25 mg active oxygen per liter, 1.5 g IEC basic washing powder per liter) was 62.9 and the Reflectance ([4]; tea stain, 15 minutes, 3% activator and 10% sodium perborate) was 52.8.

Reference: patent US5045222A, “Use of triacylated ethanolamines as liquid, water-miscible peroxide activators” (Hoechst Aktiengesellschaft, priority 1988, dated 1991)
